Patent US9096591B2, “Tetracyclic compounds” (Medivation Technologies, Inc., priority 2007, dated 2015)

How the values were obtained:
[1] = biological target: T1, human recombinant adrenergic α2A receptor (Homo sapiens, UniProt P08913); test: Adrenergic α2A radioligand binding ([3H]MK-912); design: Inhibition of ligand binding, Adren. alpha2A: concentration or dose not given beside the values; settings: percent inhibition of specific binding
T1 construct: expressed in transfected cells; host or cells: insect Sf9 cells
T1 sequence (P08913 1-465): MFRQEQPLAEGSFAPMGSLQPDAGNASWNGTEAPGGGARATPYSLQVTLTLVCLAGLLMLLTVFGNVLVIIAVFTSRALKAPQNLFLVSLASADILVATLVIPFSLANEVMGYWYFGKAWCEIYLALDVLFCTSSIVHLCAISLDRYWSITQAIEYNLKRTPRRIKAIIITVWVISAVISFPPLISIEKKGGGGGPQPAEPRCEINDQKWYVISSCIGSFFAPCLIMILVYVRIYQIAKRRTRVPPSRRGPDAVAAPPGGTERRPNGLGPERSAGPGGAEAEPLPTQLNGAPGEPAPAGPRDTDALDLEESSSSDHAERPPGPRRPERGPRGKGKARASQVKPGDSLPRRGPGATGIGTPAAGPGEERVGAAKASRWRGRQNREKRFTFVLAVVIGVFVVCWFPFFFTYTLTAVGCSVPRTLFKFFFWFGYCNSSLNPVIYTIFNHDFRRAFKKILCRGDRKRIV
In short: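 Membranes from Sf9 cells expressing the receptor were incubated with 1 nM [3H]MK-912 for 60 minutes at 25° C in 50 mM Tris-HCl pH 7.4, 12.5 mM MgCl2, 2 mM EDTA. 10 μM WB-4101 defined non-specific binding. Values are percent inhibition of specific bound radioactivity after filtration.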

[2] = biological target: T2, human recombinant serotonin (5-Hydroxytryptamine) 5-HT2C receptor (Homo sapiens, UniProt P28335); test: Serotonin 5-HT2C radioligand binding ([3H]Mesulergine); design: Inhibition of ligand binding, Ser. 5-HT2C: concentration or dose not given beside the values; settings: percent inhibition of specific binding
T2 construct: expressed in transfected cells; host or cells: CHO-K1 cells
T2 sequence (P28335 33-458): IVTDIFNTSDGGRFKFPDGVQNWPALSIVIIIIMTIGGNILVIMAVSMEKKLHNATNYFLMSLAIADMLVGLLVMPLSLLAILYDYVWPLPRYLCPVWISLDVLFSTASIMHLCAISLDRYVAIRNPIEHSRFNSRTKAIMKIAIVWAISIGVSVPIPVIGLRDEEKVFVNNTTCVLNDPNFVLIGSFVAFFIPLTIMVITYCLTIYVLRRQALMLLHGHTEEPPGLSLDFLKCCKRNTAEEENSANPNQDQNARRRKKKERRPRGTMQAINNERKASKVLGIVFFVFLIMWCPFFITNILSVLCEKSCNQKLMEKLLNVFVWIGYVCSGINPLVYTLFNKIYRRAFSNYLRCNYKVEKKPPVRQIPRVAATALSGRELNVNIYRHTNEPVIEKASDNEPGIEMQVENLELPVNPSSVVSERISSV
Procedure: Compounds of the invention were incubated with 1 nM [^3H]Mesulergine for 60 minutes at 25° C. Non-specific binding was estimated in the presence of 1 μM Mianserin. Receptor proteins were filtered and washed, the filters were then counted to determine [^3H]Mesulergine specifically bound. […] Biochemical assay results are presented as the percent inhibition of specific binding in Table 6.

[3] = biological target: T3, human recombinant serotonin (5-Hydroxytryptamine) 5-HT6 receptor (Homo sapiens, UniProt P50406); test: Serotonin 5-HT6 radioligand binding ([3H]LSD); design: Inhibition of ligand binding, Ser. 5-HT6: concentration or dose not given beside the values; settings: percent inhibition of specific binding
T3 construct: expressed in transfected cells; host or cells: human HeLa cells
Excerpt: Receptor proteins were filtered and washed, the filters were then counted to determine [3H]LSD specifically bound. […] Biochemical assay results are presented as the percent inhibition of specific binding in Table 6.

[4] = biological target: T4, Serotonin (5-Hydroxytryptamine) 5-HT7 (Homo sapiens, UniProt P34969); test: Serotonin 5-HT7 radioligand binding ([3H]LSD); design: Inhibition of ligand binding, Ser. 5-HT7: concentration or dose not given beside the values; settings: percent inhibition of specific binding
T4 construct: expressed in transfected cells; host or cells: CHO cells
Procedure: Lysergic acid diethylamide (LSD) for 2 hours at 25° C. […] Receptor proteins were filtered and washed, the filters were then counted to determine [^3H]LSD specifically bound. […] Biochemical assay results are presented as the percent inhibition of specific binding in Table 6.

[5] = test system: adrenergic receptors α1D, α2A, α2B; serotonin receptor 5-HT6; dopamine receptor D2L; test: Classification of compounds (Type 1-4) from receptor binding and neurite outgrowth

T3 sequence (P50406 whole entry): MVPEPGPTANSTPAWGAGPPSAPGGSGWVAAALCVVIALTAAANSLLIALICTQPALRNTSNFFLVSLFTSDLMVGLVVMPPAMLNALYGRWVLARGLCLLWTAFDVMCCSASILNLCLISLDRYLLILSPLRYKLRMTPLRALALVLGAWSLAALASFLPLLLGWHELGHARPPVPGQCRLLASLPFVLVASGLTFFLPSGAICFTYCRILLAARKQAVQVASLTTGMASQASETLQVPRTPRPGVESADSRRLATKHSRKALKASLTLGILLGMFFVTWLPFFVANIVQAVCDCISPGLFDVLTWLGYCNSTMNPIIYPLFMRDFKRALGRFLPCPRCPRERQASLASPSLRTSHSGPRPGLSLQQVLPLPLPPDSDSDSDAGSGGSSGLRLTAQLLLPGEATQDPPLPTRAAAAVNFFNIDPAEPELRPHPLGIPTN
T4 sequence (P34969 whole entry): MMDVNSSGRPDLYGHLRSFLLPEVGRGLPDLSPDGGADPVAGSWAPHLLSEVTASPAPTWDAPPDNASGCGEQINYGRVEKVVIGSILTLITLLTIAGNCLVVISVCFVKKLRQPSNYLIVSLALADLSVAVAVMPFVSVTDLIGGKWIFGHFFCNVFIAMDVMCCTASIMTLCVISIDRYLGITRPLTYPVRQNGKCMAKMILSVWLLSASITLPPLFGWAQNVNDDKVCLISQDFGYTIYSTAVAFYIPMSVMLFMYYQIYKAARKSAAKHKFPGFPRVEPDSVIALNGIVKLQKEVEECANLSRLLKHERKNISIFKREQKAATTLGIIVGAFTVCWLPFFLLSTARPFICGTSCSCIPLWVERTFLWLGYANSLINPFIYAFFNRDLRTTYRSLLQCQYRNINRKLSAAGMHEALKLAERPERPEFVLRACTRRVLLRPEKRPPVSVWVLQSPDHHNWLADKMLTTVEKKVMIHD

SMILES | Inhibition of ligand binding, Adren. alpha2A [1] [%] | Inhibition of ligand binding, Ser. 5-HT2C [2] [%] | Inhibition of ligand binding, Ser. 5-HT6 [3] [%] | Inhibition of ligand binding, Ser. 5-HT7 [4] [%] | compound type (classification by receptor binding profile and neurite outgrowth) [5]
Cc1ccc(CCn2c3c(c4cc(Cl)ccc42)CN(C)CC3)cc1 [Compound 43] | 100 | 100 | 102 | 92 | Type one
CN1CCc2c(c3cc(Cl)ccc3n2CCc2ccc(Cl)cc2)C1 [Compound 45, 5-(4-chlorophenethyl)-8-chloro-2,3,4,5-tetrahydro-2-methyl-1H-pyrido[4,3-b]indole] | 100 | 97 | 103 | 99 | Type one
Cc1ccc(CCn2c3c(c4cc(C(F)(F)F)ccc42)CN(C)CC3)cc1 [Compound 47] | 98 | 89 | 99 | 92 | Type one
CN1CCc2c(c3cc(Cl)ccc3n2CCc2ccncc2)C1 [Compound 56] | 95 | 87 | 102 | 91 | Type one
Cc1ccc2c(c1)c1c(n2CCc2ccc(C(F)(F)F)nc2)CCN(C)C1 [Compound 68] | 94 | 78 | 88 | 103 | Type one
CN1CCc2c(c3cccc(Cl)c3n2CCc2ccccc2)C1 [Compound 83] | 100 | 99 | 106 | 95 | Type one
CN1CCc2c(c3cc(Cl)ccc3n2CCc2ccc(F)cc2)C1 [Compound 162, 5-(4-fluorophenethyl)-8-chloro-2,3,4,5-tetrahydro-2-methyl-1H-pyrido[4,3-b]indole] | 99 | 94 | 99 | 94 | Type one
CCc1ccc2c(c1)c1c(n2CCc2ccc(C)nc2)CCN(C)C1 [Compound 357, 8-Ethyl-2-methyl-5-[2-(6-methyl-pyridin-3-yl)-ethyl]-2,3,4,5-tetrahydro-1H-pyrido[4,3-b]indole] | 91 | 67 | 85 |  | Type one
Cc1ccc2c(c1)c1c(n2CCc2ccc(C(C)C)nc2)CCN(C)C1 [Compound 360, 5-[2-(6-Isopropyl-pyridin-3-yl)-ethyl]-2,8-dimethyl-2,3,4,5-tetrahydro-1H-pyrido[4,3-b]indole] | 101 | 83 | 91 | 91 | Type one
CCc1ccc(CCn2c3c(c4cc(Cl)ccc42)CN(C)CC3)cn1 [Compound 371, 8-Chloro-5-[2-(6-ethyl-pyridin-3-yl)-ethyl]-2-methyl-2,3,4,5-tetrahydro-1H-pyrido[4,3-b]indole] | 89 | 87 | 88 |  | Type one
CC(C)c1ccc(CCn2c3c(c4cc(Cl)ccc42)CN(C)CC3)cn1 [Compound 372, 8-Chloro-5-[2-(6-isopropyl-pyridin-3-yl)-ethyl]-2-methyl-2,3,4,5-tetrahydro-1H-pyrido[4,3-b]indole] | 100 | 77 | 88 | 94 | Type one
Cc1ccc(CCn2c3c(c4cc(Cl)c(F)cc42)CN(C)CC3)cn1 [Compound 404, 8-Chloro-7-fluoro-2-methyl-5-[2-(6-methyl-pyridin-3-yl)-ethyl]-2,3,4,5-tetrahydro-1H-pyrido[4,3-b]indole] | 94 | 78 | 94 |  | Type one
Cc1ccc2c(c1)c1c(n2CCc2cncc(Cl)c2)CCN(C)C1 [Compound 443, 5-(2-(5-chloropyridin-3-yl)ethyl)-2,3,4,5-tetrahydro-2,8-dimethyl-1H-pyrido[4,3-b]indole] | 87 | 95 | 96 |  | Type one
CN1CCc2c(c3cc(Cl)ccc3n2CCc2cncc(Cl)c2)C1 [Compound 444, 8-chloro-5-(2-(5-chloropyridin-3-yl)ethyl)-2,3,4,5-tetrahydro-2-methyl-1H-pyrido[4,3-b]indole] | 89 | 95 | 96 |  | Type one
CCCc1ccc(CCn2c3c(c4cc(C)ccc42)CN(C)CC3)cn1 [Compound 452, 2,8-Dimethyl-5-[2-(6-propyl-pyridin-3-yl)-ethyl]-2,3,4,5-tetrahydro-1H-pyrido[4,3-b]indole] | 92 | 93 | 93 | 96 | Type one
Cc1ccc2c(c1)c1c(n2CC(C)c2ccc(F)cc2)CCN(C)C1 (stereo not drawn) [Compound 456, 5-(2-(4-fluorophenyl)propyl)-2,3,4,5-tetrahydro-2,8-dimethyl-1H-pyrido[4,3-b]indole] | 106 | 99 | 98 |  | Type one
CCCc1ccc(CCn2c3c(c4cc(Cl)ccc42)CN(C)CC3)cn1 [Compound 476, 8-chloro-2,3,4,5-tetrahydro-2-methyl-5-(2-(6-propylpyridin-3-yl)ethyl)-1H-pyrido[4,3-b]indole] | 87 | 96 | 87 |  | Type one
